Assays:
[1] = molecular target: T1, LRRK2 WT (Homo sapiens, UniProt Q5S007); assay: LRRK2 Kinase Activity Assay (LanthaScreen TR-FRET), wild type; type: biochemical; conditions: recombinant wild type LRRK2, 25 μM ATP, 400 nM LRRKtide, 60 min; class symbols
T1 construct: purchased Life Technologies PR8604B
In short: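 IC50 fitted to the compound-dependent loss of TR-FRET signal. Each kinase form, wild type or G2019S, phosphorylated the fluorescein-tagged ERM-derived LRRKtide in the presence of ATP and compound dilutions over 60 min at room temperature; quench contained 10 mM EDTA and 2 nM anti-pERM antibody (final).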

[2] = molecular target: T2, LRRK2 G2019S (Homo sapiens, UniProt Q5S007, G2019S); assay: LRRK2 Kinase Activity Assay (LanthaScreen TR-FRET), G2019S; type: biochemical; conditions: recombinant G2019S-LRRK2, 25 μM ATP, 400 nM LRRKtide, 60 min; class symbols
T2 construct: purchased Life Technologies PV4881
T2 sequence (Q5S007 whole entry G2019S): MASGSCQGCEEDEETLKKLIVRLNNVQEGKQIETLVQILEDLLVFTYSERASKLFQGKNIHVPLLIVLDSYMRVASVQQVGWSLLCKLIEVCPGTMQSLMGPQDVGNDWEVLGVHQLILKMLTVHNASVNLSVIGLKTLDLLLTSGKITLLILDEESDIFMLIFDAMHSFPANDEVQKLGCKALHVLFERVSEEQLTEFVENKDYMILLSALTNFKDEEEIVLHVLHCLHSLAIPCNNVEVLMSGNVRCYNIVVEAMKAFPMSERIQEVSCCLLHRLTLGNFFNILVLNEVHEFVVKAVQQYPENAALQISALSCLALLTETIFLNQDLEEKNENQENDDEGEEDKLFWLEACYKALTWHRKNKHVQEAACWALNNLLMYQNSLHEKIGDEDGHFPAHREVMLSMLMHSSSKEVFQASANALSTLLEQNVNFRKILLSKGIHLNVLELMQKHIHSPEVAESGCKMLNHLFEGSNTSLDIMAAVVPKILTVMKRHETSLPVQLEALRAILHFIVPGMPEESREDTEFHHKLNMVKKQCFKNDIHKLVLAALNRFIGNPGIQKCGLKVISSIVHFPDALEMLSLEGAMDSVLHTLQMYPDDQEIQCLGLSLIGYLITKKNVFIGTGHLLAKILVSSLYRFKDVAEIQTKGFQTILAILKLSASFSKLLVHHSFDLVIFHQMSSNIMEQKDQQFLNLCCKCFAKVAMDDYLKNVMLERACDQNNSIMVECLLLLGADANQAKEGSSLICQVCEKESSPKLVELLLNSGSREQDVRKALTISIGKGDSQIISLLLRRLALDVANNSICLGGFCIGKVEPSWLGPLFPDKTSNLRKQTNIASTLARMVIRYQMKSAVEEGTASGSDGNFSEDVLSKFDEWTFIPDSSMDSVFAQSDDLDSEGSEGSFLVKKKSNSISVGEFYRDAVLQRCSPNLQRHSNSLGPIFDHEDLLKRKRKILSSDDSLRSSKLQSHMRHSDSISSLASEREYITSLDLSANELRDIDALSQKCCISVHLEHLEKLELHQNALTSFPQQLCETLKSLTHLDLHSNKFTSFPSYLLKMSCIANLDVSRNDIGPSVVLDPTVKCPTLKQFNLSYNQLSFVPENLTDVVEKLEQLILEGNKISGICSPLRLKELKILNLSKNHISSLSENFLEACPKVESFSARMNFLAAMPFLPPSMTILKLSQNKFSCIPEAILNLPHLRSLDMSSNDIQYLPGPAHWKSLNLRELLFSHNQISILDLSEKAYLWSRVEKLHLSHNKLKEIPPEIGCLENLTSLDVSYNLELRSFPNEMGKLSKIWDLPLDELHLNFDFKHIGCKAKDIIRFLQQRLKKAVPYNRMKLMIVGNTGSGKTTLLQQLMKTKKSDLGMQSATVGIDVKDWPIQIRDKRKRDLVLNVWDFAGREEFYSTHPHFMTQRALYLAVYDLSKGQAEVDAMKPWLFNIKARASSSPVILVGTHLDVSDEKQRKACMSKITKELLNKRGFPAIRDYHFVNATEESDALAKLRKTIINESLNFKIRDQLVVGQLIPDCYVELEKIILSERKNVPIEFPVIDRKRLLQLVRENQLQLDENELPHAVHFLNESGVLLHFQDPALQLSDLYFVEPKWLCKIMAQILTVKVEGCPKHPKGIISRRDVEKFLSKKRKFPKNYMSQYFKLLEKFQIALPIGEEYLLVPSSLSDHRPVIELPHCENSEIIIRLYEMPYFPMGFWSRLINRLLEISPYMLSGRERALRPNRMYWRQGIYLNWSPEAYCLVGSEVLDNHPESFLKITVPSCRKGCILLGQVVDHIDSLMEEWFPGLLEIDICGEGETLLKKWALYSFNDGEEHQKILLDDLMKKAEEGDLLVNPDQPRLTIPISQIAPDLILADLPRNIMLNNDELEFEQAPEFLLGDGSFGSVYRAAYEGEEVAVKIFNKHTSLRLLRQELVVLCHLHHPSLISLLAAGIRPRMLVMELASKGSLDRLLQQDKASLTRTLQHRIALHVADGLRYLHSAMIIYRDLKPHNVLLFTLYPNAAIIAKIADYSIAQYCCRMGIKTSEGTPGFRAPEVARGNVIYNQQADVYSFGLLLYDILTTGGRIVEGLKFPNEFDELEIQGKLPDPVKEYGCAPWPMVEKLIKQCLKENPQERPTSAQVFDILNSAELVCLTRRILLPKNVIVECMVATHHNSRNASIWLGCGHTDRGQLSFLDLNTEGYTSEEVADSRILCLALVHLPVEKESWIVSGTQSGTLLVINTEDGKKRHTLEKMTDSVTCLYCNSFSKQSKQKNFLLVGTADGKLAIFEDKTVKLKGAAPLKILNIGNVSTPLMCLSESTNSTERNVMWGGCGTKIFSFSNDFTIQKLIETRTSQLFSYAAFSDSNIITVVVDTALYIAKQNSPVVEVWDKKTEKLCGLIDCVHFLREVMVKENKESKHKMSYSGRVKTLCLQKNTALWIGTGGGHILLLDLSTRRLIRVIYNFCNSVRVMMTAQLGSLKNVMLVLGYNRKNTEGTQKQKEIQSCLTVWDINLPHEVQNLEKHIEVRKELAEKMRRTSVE
Description: LRRK2 kinase activity was measured using a LanthaScreen™ Kinase Activity Assay from ThermoFisher Scientific. Recombinant wild type or G2019S-LRRK2 protein (Life Technologies, PR8604B or PV4881, respectively), was incubated with a fluorescein-labeled peptide substrate called LRRKtide that is based upon ezrin/radixin/moesin (ERM) (Life Technologies, PV4901) in the presence of ATP and serially diluted compound. […] Compound-dependent inhibition of the TR-FRET signal was used to generate a concentration-response curve for IC50 determination.
After 60 min incubation at room temperature, the reaction was stopped by addition of 10 μL of 2×stop solution containing a final concentration of 2 nM anti-pERM antibody and 10 mM EDTA.

T1 sequence (Q5S007 whole entry): as the sequence (Q5S007 whole entry G2019S) above, with S2019G counted along it

| IC50 [1] | IC50 [2] | SMILES |
| --- | --- | --- |
| < 100 nM | < 100 nM | N#Cc1ccc2c(c1)CC[C@@H]2Nc1ccc2[nH]nc(-c3cnco3)c2c1 (single isomer, unassigned) [Example 9, enantiomer 1, 1-((3-(Oxazol-5-yl)-1H-indazol-5-yl)amino)-2,3-dihydro-1H-indene-5-carbonitrile] |
| 100 to 1000 nM | < 100 nM | N#Cc1ccc2c(c1)CCC[C@@H]2Nc1ccc2[nH]nc(I)c2c1 (single isomer, unassigned) [Example 15, enantiomer 1, 5-((3-Iodo-1H-indazol-5-yl)amino)-5,6,7,8-tetrahydronaphthalene-2-carbonitrile] |
| 1000 to 10000 nM | 100 to 1000 nM | N#Cc1ccc2c(c1)CCC[C@@H]2Nc1ccc2[nH]nc(I)c2c1 (single isomer, unassigned) [Example 15, enantiomer 2, 5-((3-Iodo-1H-indazol-5-yl)amino)-5,6,7,8-tetrahydronaphthalene-2-carbonitrile] |
| < 100 nM | < 100 nM | N#Cc1cnc2c(c1)CCC[C@@H]2Oc1ccc2[nH]nc(-c3cnco3)c2c1 (single isomer, unassigned) [Example 16, enantiomer 1, 8-((3-(Oxazol-5-yl)-1H-indazol-5-yl)oxy)-5,6,7,8-tetrahydroquinoline-3-carbonitrile] |
| 100 to 1000 nM | 100 to 1000 nM | Cc1n[nH]c2ccc(O[C@H]3CCCc4cc(C#N)ccc43)cc12 (single isomer, unassigned) [Example 19, enantiomer 1, 5-((3-Methyl-1H-indazol-5-yl)oxy)-5,6,7,8-tetrahydronaphthalene-2-carbonitrile] |
| 100 to 1000 nM | < 100 nM | N#Cc1ccc2c(c1)CC[C@@H]2Nc1cc2c(-c3cnco3)n[nH]c2cn1 (single isomer, unassigned) [Example 21, enantiomer 2, 1-((3-(Oxazol-5-yl)-1H-pyrazolo[3,4-c]pyridin-5-yl)amino)-2,3-dihydro-1H-indene-5-carbonitrile] |
| < 100 nM | < 100 nM | Cc1c(C#N)ccc2c1CC[C@@H]2Oc1ccc2[nH]nc(-c3cnco3)c2c1 (single isomer, unassigned) [Example 22, enantiomer 1, 4-Methyl-1-((3-(oxazol-5-yl)-1H-indazol-5-yl)oxy)-2,3-dihydro-1H-indene-5-carbonitrile] |
| < 100 nM | < 100 nM | N#Cc1cc2c(cc1F)[C@@H](Oc1ccc3[nH]nc(-c4cnco4)c3c1)CC2 (single isomer, unassigned) [Example 23, enantiomer 1, 6-Fluoro-1-((3-(oxazol-5-yl)-1H-indazol-5-yl)oxy)-2,3-dihydro-1H-indene-5-carbonitrile] |
| < 100 nM | < 100 nM | N#Cc1ccc2c(c1F)CC[C@@H]2Oc1ccc2[nH]nc(-c3cnco3)c2c1 (single isomer, unassigned) [Example 24, enantiomer 1, 4-Fluoro-1-((3-(oxazol-5-yl)-1H-indazol-5-yl)oxy)-2,3-dihydro-1H-indene-5-carbonitrile] |
| < 100 nM | < 100 nM | N#Cc1cc2c(cc1F)[C@@H](Nc1ccc3[nH]nc(-c4cnco4)c3c1)CC2 (single isomer, unassigned) [Example 25, enantiomer 1, 6-Fluoro-1-((3-(oxazol-5-yl)-1H-indazol-5-yl)amino)-2,3-dihydro-1H-indene-5-carbonitrile] |
| < 100 nM | < 100 nM | N#Cc1ccc2c(c1F)CC[C@@H]2Nc1ccc2[nH]nc(-c3cnco3)c2c1 (single isomer, unassigned) [Example 26, enantiomer 1, 4-Fluoro-1-((3-(oxazol-5-yl)-1H-indazol-5-yl)amino)-2,3-dihydro-1H-indene-5-carbonitrile] |
| < 100 nM | < 100 nM | N#Cc1ccc2c(c1)CC[C@H]2Nc1ccc2[nH]nc(-c3cnco3)c2n1 (single isomer, unassigned) [Example 30, enantiomer 1, 1-((3-(Oxazol-5-yl)-1H-pyrazolo[4,3-b]pyridin-5-yl)amino)-2,3-dihydro-1H-indene-5-carbonitrile] |
| < 100 nM | < 100 nM | N#Cc1ccc2c(c1)CC[C@H]2Oc1ccc2[nH]nc(-c3cnco3)c2n1 (single isomer, unassigned) [Example 31, enantiomer 1, 1-((3-(Oxazol-5-yl)-1H-pyrazolo[4,3-b]pyridin-5-yl)oxy)-2,3-dihydro-1H-indene-5-carbonitrile] |

Further lines, the molecule ahead of its results:

| SMILES | IC50 [1] | IC50 [2] |
| --- | --- | --- |
| N#Cc1ccc2c(c1)CC[C@@H]2Nc1ccc2[nH]nc(-c3ccoc3)c2c1 (single isomer, unassigned) [Example 11, enantiomer 1, 1-((3-(Furan-3-yl)-1H-indazol-5-yl)amino)-2,3-dihydro-1H-indene-5-carbonitrile] | 100 to 1000 nM | < 100 nM |
| N#Cc1ccc2c(c1)CC[C@@H]2Nc1ccc2[nH]nc(-c3cnn(C(F)F)c3)c2c1 (single isomer, unassigned) [Example 12, enantiomer 1, 1-((3-(1-(Difluoromethyl)-1H-pyrazol-4-yl)-1H-indazol-5-yl)amino)-2,3-dihydro-1H-indene-5-carbonitrile] | < 100 nM | < 100 nM |
| Cc1cc(C#N)cc2c1[C@@H](Oc1ccc3[nH]nc(-c4cnco4)c3c1)CC2 (single isomer, unassigned) [Example 14, enantiomer 1, 7-Methyl-1-((3-(oxazol-5-yl)-1H-indazol-5-yl)oxy)-2,3-dihydro-1H-indene-5-carbonitrile] | < 100 nM | < 100 nM |
| N#Cc1ccc2c(c1)CCC[C@@H]2Oc1ccc2[nH]nc(-c3cnoc3)c2c1 (single isomer, unassigned) [Example 17, enantiomer 1, 5-((3-(Isoxazol-4-yl)-1H-indazol-5-yl)oxy)-5,6,7,8-tetrahydronaphthalene-2-carbonitrile] | < 100 nM | < 100 nM |
| N#Cc1ccc2c(c1)CCC[C@@H]2Oc1ccc2[nH]nc(-c3cnoc3)c2c1 (single isomer, unassigned) [Example 17, enantiomer 2, 5-((3-(Isoxazol-4-yl)-1H-indazol-5-yl)oxy)-5,6,7,8-tetrahydronaphthalene-2-carbonitrile] | 100 to 1000 nM | < 100 nM |
| N#Cc1ccc2c(c1)CCC[C@@H]2Oc1ccc2[nH]nc(-c3cnco3)c2c1 (single isomer, unassigned) [Example 18, enantiomer 1, 5-((3-(Oxazol-5-yl)-1H-indazol-5-yl)oxy)-5,6,7,8-tetrahydronaphthalene-2-carbonitrile] | < 100 nM | < 100 nM |
| Cc1n[nH]c2ccc(O[C@H]3CCCc4cc(C#N)ccc43)cc12 (single isomer, unassigned) [Example 19, enantiomer 2, 5-((3-Methyl-1H-indazol-5-yl)oxy)-5,6,7,8-tetrahydronaphthalene-2-carbonitrile] | 100 to 1000 nM | < 100 nM |
| N#Cc1ccc2c(c1)CC[C@@H]2Oc1cc2c(-c3cnco3)n[nH]c2cn1 (single isomer, unassigned) [Example 20, enantiomer 1, 1-((3-(Oxazol-5-yl)-1H-pyrazolo[3,4-c]pyridin-5-yl)oxy)-2,3-dihydro-1H-indene-5-carbonitrile] | < 100 nM | < 100 nM |
| N#Cc1ccc2c(c1)CC[C@@H]2Oc1cc2c(-c3cnco3)n[nH]c2cn1 (single isomer, unassigned) [Example 20, enantiomer 2, 1-((3-(Oxazol-5-yl)-1H-pyrazolo[3,4-c]pyridin-5-yl)oxy)-2,3-dihydro-1H-indene-5-carbonitrile] | 100 to 1000 nM | < 100 nM |
| N#Cc1ccc2c(c1)CC[C@@H]2Nc1cc2c(-c3cnco3)n[nH]c2cn1 (single isomer, unassigned) [Example 21, enantiomer 1, 1-((3-(Oxazol-5-yl)-1H-pyrazolo[3,4-c]pyridin-5-yl)amino)-2,3-dihydro-1H-indene-5-carbonitrile] | < 100 nM | < 100 nM |
| Cc1c(C#N)ccc2c1CC[C@@H]2Nc1ccc2[nH]nc(-c3cnco3)c2c1 (single isomer, unassigned) [Example 27, enantiomer 1, 4-methyl-1-((3-(oxazol-5-yl)-1H-indazol-5-yl)amino)-2,3-dihydro-1H-indene-5-carbonitrile] | < 100 nM | < 100 nM |
| Cc1cc2c(cc1C#N)CC[C@@H]2Nc1ccc2[nH]nc(-c3cnco3)c2c1 (single isomer, unassigned) [Example 28, enantiomer 1, 6-Methyl-1-((3-(oxazol-5-yl)-1H-indazol-5-yl)amino)-2,3-dihydro-1H-indene-5-carbonitrile] | 100 to 1000 nM | < 100 nM |
| Cc1cc2c(cc1C#N)CC[C@H]2Oc1ccc2[nH]nc(-c3cnco3)c2c1 (single isomer, unassigned) [Example 29, enantiomer 1, 6-Methyl-1-((3-(oxazol-5-yl)-1H-indazol-5-yl)oxy)-2,3-dihydro-1H-indene-5-carbonitrile] | < 100 nM | < 100 nM |
| N#Cc1ccc2c(c1)CC[C@H]2Nc1ccc2[nH]nc(-c3cnco3)c2n1 (single isomer, unassigned) [Example 30, enantiomer 2, 1-((3-(Oxazol-5-yl)-1H-pyrazolo[4,3-b]pyridin-5-yl)amino)-2,3-dihydro-1H-indene-5-carbonitrile] | 100 to 1000 nM | < 100 nM |

— US20230148214A1, “INDAZOLES AND AZAINDAZOLES AS LRRK2 INHIBITORS” (ESCAPE Bio, Inc., priority 2020, published 2023)
